# Results taken from patent publication US20230132140A1, “METHOD OF TREATING CANCER” (Celloram Inc., priority 2021, published 2023).
# Tested on: not listed separately
# Assay: Immunogenicity of NeoAgs screened by Deepomics algorithm
# Conditions: not given
row,Sequence,immunogenic characteristics of NeoAgs
1,GVRAALPTPR (SEQ ID NO: 4) (listed as Mus sp.) [MT4-7],poorly immunogenic
2,RVGGHLRLSGQ (SEQ ID NO: 3) (listed as Mus sp.) [MT4-6],poorly immunogenic
3,HRAERPFPEED (SEQ ID NO: 1) (listed as Mus sp.) [MT4-1],poorly immunogenic
4,LTPSFPVSP (SEQ ID NO: 2) (listed as Mus sp.) [MT4-2],poorly immunogenic
5,QAGPVLPTSLE (SEQ ID NO: 5) (listed as Mus sp.) [MT4-8],poorly immunogenic

# Tested on: COVID-19 patient's PBMC
# Assay: not given
# Conditions: cited from earlier work
row,Sequence,induction of T cell responses
1,TRFQTLLALHRSYLT (SEQ ID NO: 10) [Spike S236-250 peptide],able to induce T cell responses
